Reference: US20230278987A1, “Antimicrobial Compounds and Methods” (Curza Global, LLC, priority 2019, published 2023)
Values after ≈ are worked out from the molar mass of the structure shown. Structures can show the parent of a compound that is named as a salt. Where two headings read alike, the source gives them in different places.

How the values were obtained:
[1] = system: E.coli S30 extract (bacterial protein synthesis); experiment: E.coli S30 extract: inhibition of bacterial protein synthesis (luciferase); format: biochemical; conditions: 37° C. for 1 hour
Experimental: E.coli S30 extract: Inhibition of bacterial protein synthesis was determined using the E.coli S30 Extract System for Circular DNA (Promega catalog #L-2010) and Luciferase Assay Reagent (Promega catalog #E1500) with slight modifications to a published protocol. Fyfe, C., Sutcliffe, J.A. and Grossman, T.H. (2012) “Development and characterization of a Pseudomonas aeruginosa in vitro coupled transcription-translation assay system for evaluation of translation inhibitors” J. Microbiol. Methods 90(3), 256-261.
Compounds were serial diluted in 0.5 mL microcentrifuge tubes by mixing and transferring 50 µL from the highest concentration to 50 µL of water, mixing and transferring 50 µL of this 2-fold dilution to 50 µL of water. This mixing and transferring was repeated so that there are a total of 8 tubes with serial dilutions of compound at 10× the desired screening concentration that are ultimately diluted to 1× by the addition of S30 luciferase synthesis mixture. Serial dilutions of compounds were added (2 µL) to wells in a black round bottom 96-well plate. Water (2 µL) was used as a “no inhibitor” control in 4 wells/plate. No DNA control reaction mixture (20 µL; see below) was used as a control in 4 wells/plate for background luminescence. S30 luciferase synthesis mixture (18 µL; see below) was added to wells with compounds or water mixture and incubated at 37° C. for 1 hour. Reactions were stopped by transferring to 4° C. refrigerator for 5 minutes then 25 µL of luciferase activity mix was added. Luminescence was measured using a BioTek Synergy HTX plate reader. % Inhibition was determined relative to no inhibitor controls.
S30 luciferase synthesis mixture: • 445 µL S30 extract, circular • 712 µL S30 Premix without amino acids • 4.45 µL pBESTluc™ DNA (1 µg/ µL) • 78 µL complete amino acid mixture • 267 µL water
No DNA control: • 20 µL S30 extract, circular • 32 µL S30 Premix without amino acids • 7 µL complete amino acid mixture • 21 µL water

[2] = target: Rabbit Reticulocyte Lysate (eukaryotic protein synthesis); experiment: Rabbit Reticulocyte Lysate: inhibition of eukaryotic protein synthesis (luciferase); format: biochemical; conditions: 30° C. for 90 minutes, read-out: retic. IC50
Experimental: Inhibition of eukaryotic protein synthesis was determined using the Rabbit Reticulocyte Lysate System, Nuclease-Treated from Promega (catalog #L-4960) with slight modifications to the manufacturer’s protocol. Compounds were serial diluted in 0.5 mL microcentrifuge tubes by mixing and transferring 50 µL from the highest concentration to 50 µL of water, mixing and transferring 50 µL of this 2-fold dilution to 50 µL of water. This mixing and transferring was repeated so that there are a total of 8 tubes with serial dilutions of compound at 10× the desired screening concentration that are ultimately diluted to 1× by the addition of rabbit reticulocyte luciferase synthesis mixture. Serial dilutions of compounds were added (2.5 µL) to wells in a black round bottom 96-well plate. Water (2.5 µL) was used as a “no inhibitor” control in 4 wells/plate. No RNA control reaction mixture (2 µL; see below) was used as a control in 4 wells/plate for background luminescence. Rabbit reticulocyte luciferase synthesis mixture (22.5 µL; see below) was added to wells with compounds or water mixture and incubated at 30° C. for 90 minutes. Luciferase assay reagent (25 µL) was added with luminescence measured using a BioTek Synergy HTX plate reader. % Inhibition was determined relative to no inhibitor controls.
Rabbit reticulocyte luciferase synthesis mixture: • 1,000 µL rabbit reticulocyte lysate • 5.7 µL Luciferase Control RNA (1 µg/ µL) • 26 µL complete amino acid mixture • 395 µL water
No RNA Control • 70 µL rabbit reticulocyte lysate • 2 µL complete amino acid mixture • 28 µL water

P.aeruginosa (Pa) = experiment: Broth microdilution MIC against P.aeruginosa (Pa); format: cell-based; conditions: Pseudomonas aeruginosa
Experimental: (§1) A certified BSL-2 laboratory was used for testing. Compounds were evaluated using the broth microdilution minimum inhibitory concentration (MIC) and minimum bactericidal concentration (MBC) assays defined by Clinical and Laboratory Standards Institute (CLSI) in the M26-A guideline against S.aureus (Sa), E.coli (Ec), K.pneumoniae (Kp), A.baumannii (Ab), E.faecalis (Ef) and P.aeruginosa (Pa).
(§2) MICs were determined using the Clinical Laboratory and Standards Institute (CLSI) Broth Microdilution Method with slight modification. Clinical and Laboratory Standards Institute (2012). “Methods for dilution antimicrobial susceptibility tests for bacteria that grow aerobically; approved standard, 9th ed. M07-A9. Clinical and Laboratory Standards Institute, Wayne, PA.” Serial two-fold dilutions of compounds are prepared in sterile clear roundbottom 96-well plates.
(§3) To prepare microdilution trays, two-fold dilutions of antimicrobial agent are prepared in growth medium: Cation-Adjusted Mueller-Hinton Broth (CAMHB), or CAMHB supplemented with sodium bicarbonate (6.25 or 25 mM final concentration prepared from a 1.0 M stock solution) or CAMHB supplemented with heat inactivated human serum (Fisher Cat. # BP2657100) 0-50% by adding 200 µL of the highest concentration to be tested (64 µg/mL, for example) in row A, mixing and transferring 100 µL from row A to 100 µL growth medium in row B, then repeating the mixing and transferring through row H of the 96-well plate, discarding the excess 100 µL remaining. This slight modification to the CLSI protocol enables evaluation of MICs for 3 compounds per plate in triplicate, albeit with only 8 compound dilutions (CLSI protocol enables 2 compounds in triplicate with 10 dilutions). Bacterial suspensions are added to a final concentration of 5 × 10^4 CFU/well by adding 5 µL of a 1:10 dilution of a 0.5 McFarland suspension (1 × 10^8 CFU/mL) for each bacterium evaluated. Bacterial suspensions were prepared using the growth method described by CLSI. Well-isolated colonies (3-5 from an agar plate) were selected using a sterile loop and used to inoculate a tube containing 4 mL of CAMHB. The cultures are incubated at 35 ± 2° C. until it achieves or exceeds the turbidity of the 0.5 McFarland standard, determined by measuring A600nm (usually two to six hours). When growth exceeds a 0.5 McFarland standard, the turbidity is adjusted with broth to be equivalent to a 0.5 McFarland standard.

A.baumannii (Ab) = experiment: Broth microdilution MIC against A.baumannii (Ab); format: cell-based; conditions: Acinetobacter baumannii, read-out: Ab +bicarb 6.25 (MIC)
Experimental: as §1, §2, §3

E.coli (Ec) = experiment: Broth microdilution MIC against E.coli (Ec); format: cell-based; conditions: Escherichia coli, read-out: E. coli + bicarb 6.25 (MIC)
Experimental: as §1, §2, §3

S.aureus (Sa) = experiment: Broth microdilution MIC against S.aureus (Sa); format: cell-based; conditions: Staphylococcus aureus, read-out: Sa + bicarb 6.25 (MIC)
Experimental: as §1, §2, §3

E.faecalis (Ef) = experiment: Broth microdilution MIC against E.faecalis (Ef); format: cell-based; conditions: Enterococcus faecalis, read-out: Ef +bicarb 6.25 (MIC)
Experimental: as §1, §2, §3

[3] = read-out: Pa +bicarb 6.25 (MIC)

CC(C)(N)C(=O)N1CCN(C(=O)Nc2ccn(-c3ccc4c(c3)CCC(N3CC[C@@H](CN)C3)C4)c(=O)n2)CC1 (stereo partly drawn) [Compound 4]
IC50 [1]: < 500 nM
IC50 [2]: ≥ 1000 nM
MIC (P.aeruginosa (Pa); CAMHB supplemented with sodium bicarbonate 25 mM, read-out: Pa +bicarb 25 (MIC)): 8 to 32 µg/mL (≈ 14.9 to 59.6 µM)

CC(C)(N)C(=O)N1CCN(C(=O)Nc2ccn(-c3ccc4c(c3)CCC(N3C[C@@H]5[C@@H](N)[C@@H]5C3)C4)c(=O)n2)CC1 (stereo partly drawn) [Compound 1]
IC50 [1]: ≥ 1000 nM
IC50 [2]: ≥ 1000 nM

CC(C)(N)C(=O)N1CCN(C(=O)Nc2ccn(-c3ccc4c(c3)CCC(N[C@H]3C[C@H](CN)C3)C4)c(=O)n2)CC1 (stereo partly drawn) [Compound 41, Hydrochloride Salt]
MIC (A.baumannii (Ab)): > 32 µg/mL
MIC (P.aeruginosa (Pa); [3]): > 32 µg/mL
MIC (E.coli (Ec)): < 8 µg/mL
MIC (S.aureus (Sa)): 8 to 32 µg/mL
MIC (E.faecalis (Ef)): > 32 µg/mL

CC(C)(N)C(=O)N1CCN(C(=O)Nc2ccn(-c3ccc4c(c3)CCC(N[C@H]3C[C@@H](CN)C3)C4)c(=O)n2)CC1 (stereo partly drawn) [Compound 44, Hydrochloride Salt]
MIC (A.baumannii (Ab)): > 32 µg/mL
MIC (P.aeruginosa (Pa); [3]): > 32 µg/mL
MIC (E.coli (Ec)): 8 to 32 µg/mL
MIC (S.aureus (Sa)): > 32 µg/mL
MIC (E.faecalis (Ef)): > 32 µg/mL

C[C@](N)(CO)C(=O)N1CCN(C(=O)Nc2ccn(-c3ccc4c(c3)CCC(N[C@H]3CC[C@H](N)C3)C4)c(=O)n2)CC1 (stereo partly drawn) [Compound 24, Hydrochloride Salt]
MIC (A.baumannii (Ab)): > 32 µg/mL
MIC (P.aeruginosa (Pa); [3]): > 32 µg/mL
MIC (E.coli (Ec)): < 8 µg/mL
MIC (S.aureus (Sa)): > 32 µg/mL
MIC (E.faecalis (Ef)): > 32 µg/mL

CC(C)(N)C(=O)N1CCN(C(=O)Nc2ccn(-c3ccc4c(c3)CCC(N3CCC(N)CC3)C4)c(=O)n2)CC1 (stereo not drawn) [Compound 2]
IC50 [1]: < 500 nM
IC50 [2]: ≥ 1000 nM
MIC (E.coli (Ec); CAMHB supplemented with sodium bicarbonate 6.25 mM): < 8 µg/mL

CC(C)(N)C(=O)N1CCN(C(=O)Nc2ccn(-c3ccc4c(c3)CCC(N3C[C@@H]5[C@@H](CN)[C@@H]5C3)C4)c(=O)n2)CC1 (stereo partly drawn) [Compound 3]
IC50 [1]: < 500 nM
IC50 [2]: ≥ 1000 nM

CC(C)(N)C(=O)N1CCN(C(=O)Nc2ccn(-c3ccc4c(c3)CCC(N3CC[C@H](CN)C3)C4)c(=O)n2)CC1 (stereo partly drawn) [Compound 5]
IC50 [1]: < 500 nM
IC50 [2]: ≥ 1000 nM
